In US20040152783A1, “Controlled absorption of admixed thyroid hormone formulations” (priority 2002, published 2004):
Like-named read-outs stand apart in the source and are kept apart here.

Assay: Kinetics of T3 absorption after oral dosing in rats; total serum T3 by ELISA
Assay type: in vivo, Sprague-Dawley rats
Conditions: for Peak of Delta Curve: oral solution; for Peak of Delta Curve / Deltamax / delta AUC / Tmax: serum TT3; for Percent T3 sodium (AUC 0-24) / Percent T3 sodium (Deltamax) / Percent T3 sodium (Peak of Delta Curve) / Percent T3 sodium (Tmax) / AUC* (0-24) / Deltamax / delta AUC / Tmax: oral; for AUC* (0-24): from mean delta TT3 curve above 0 hour value
Protocol: Defined μg/kg doses were delivered as oral solutions in 0.5% sodium bicarbonate buffer. Rats were dosed immediately following 0 hour serum collection. Serum was collected from rats at two, four, six, nine, 12 and 24 hours after dosing. Total serum T3 concentrations were determined by ELISA using a commercially available kit (Total Triiodothyronine (total T3) ELISA KIT, product #1700, ALPHA DIAGNOSTIC™, San Antonio, Tex.).

[1] = Example 1, T3 sodium 12 μg/kg vs T4 sodium 162 plus T3 sodium 12 μg/kg (13.5:1)
[2] = Example 2, T3 sodium 6 μg/kg vs T4 sodium 54 plus T3 sodium 6 μg/kg (9:1)
[3] = Example 3, T3 sodium 4 μg/kg vs T4 sodium 16 plus T3 sodium 4 μg/kg (4:1)
[4] = Example 4, T3 sodium 4 μg/kg vs T4 sodium 4 plus T3 sodium 4 μg/kg (1:1)
[5] = Example 5, T3 sodium 15 μg/kg vs T4 sodium 6 plus T3 sodium 15 μg/kg (0.4:1)
[6] = Example 6, T3 sodium 15 μg/kg vs T4 sodium 1.5 plus T3 sodium 15 μg/kg (0.1:1)

## N[C@@H](Cc1cc(I)c(Oc2ccc(O)c(I)c2)c(I)c1)C(=O)O [T3 sodium, liothyronine sodium]
Example 1, T3 sodium 12 μg/kg alone vs T4 sodium 162 μg/kg plus T3 sodium 12 μg/kg (T4:T3 13.5:1)
  Peak of Delta Curve: 142 ng/dL
[1]
  Percent T3 sodium (AUC 0-24): 100%
  Percent T3 sodium (Deltamax): 100%
  Percent T3 sodium (Peak of Delta Curve): 100%
  Percent T3 sodium (Tmax): 100%
  AUC* (0-24): 1,469 ng/dLh
  Deltamax: 156 ng/dL
  delta AUC: 1,471 ng/dL·hr
Example 2, T3 sodium 6 μg/kg alone vs T4 sodium 54 μg/kg plus T3 sodium 6 μg/kg (T4:T3 9:1)
  Peak of Delta Curve: 232 ng/dL
[2]
  Percent T3 sodium (AUC 0-24): 100%
  Percent T3 sodium (Deltamax): 100%
  Percent T3 sodium (Peak of Delta Curve): 100%
  Percent T3 sodium (Tmax): 100%
  AUC* (0-24): 2,212 ng/dLh
  Deltamax: 232 ng/dL
  delta AUC: 2,384 ng/dL·hr
Example 3, T3 sodium 4 μg/kg alone vs T4 sodium 16 μg/kg plus T3 sodium 4 μg/kg (T4:T3 4:1)
  Peak of Delta Curve: 65 ng/dL
[3]
  Percent T3 sodium (AUC 0-24): 100%
  Percent T3 sodium (Deltamax): 100%
  Percent T3 sodium (Peak of Delta Curve): 100%
  Percent T3 sodium (Tmax): 100%
  AUC* (0-24): 1,193 ng/dLh
  Deltamax: 69 ng/dL
  delta AUC: 1,193 ng/dL·hr
Example 4, T3 sodium 4 μg/kg alone vs T4 sodium 4 μg/kg plus T3 sodium 4 μg/kg (T4:T3 1:1)
  Peak of Delta Curve: 65 ng/dL
[4]
  Percent T3 sodium (AUC 0-24): 100%
  Percent T3 sodium (Deltamax): 100%
  Percent T3 sodium (Peak of Delta Curve): 100%
  Percent T3 sodium (Tmax): 100%
  AUC* (0-24): 1,193 ng/dLh
  Deltamax: 69 ng/dL
  Tmax: 2.4 h
  delta AUC: 1,193 ng/dL·hr
Example 5, T3 sodium 15 μg/kg alone vs T4 sodium 6 μg/kg plus T3 sodium 15 μg/kg (T4:T3 0.4:1)
  Peak of Delta Curve: 167 ng/dL
[5]
  Percent T3 sodium (AUC 0-24): 100%
  Percent T3 sodium (Deltamax): 100%
  Percent T3 sodium (Peak of Delta Curve): 100%
  Percent T3 sodium (Tmax): 100%
  AUC* (0-24): 1,732 ng/dLh
  Deltamax: 170 ng/dL
  delta AUC: 1,732 ng/dL·hr
Example 6, T3 sodium 15 μg/kg alone vs T4 sodium 1.5 μg/kg plus T3 sodium 15 μg/kg (T4:T3 0.1:1)
  Peak of Delta Curve: 138 ng/dL
[6]
  Percent T3 sodium (AUC 0-24): 100%
  Percent T3 sodium (Deltamax): 100%
  Percent T3 sodium (Peak of Delta Curve): 100%
  Percent T3 sodium (Tmax): 100%
  AUC* (0-24): 1,762 ng/dLh
  Deltamax: 146 ng/dL
  delta AUC: 1,762 ng/dL·hr
Sprague-Dawley, rat, 15 ug/kg, Example 6, T3 sodium 15 μg/kg vs T4 sodium 1.5 plus T3 sodium 15 μg/kg (0.1:1), read-out: Tmax
  Tmax: 5.6 h
Sprague-Dawley, rat, Example 1, T3 sodium 12 μg/kg vs T4 sodium 162 plus T3 sodium 12 μg/kg (13.5:1), read-out: Tmax
  Tmax: 5.2 h
Sprague-Dawley, rat, Example 2, T3 sodium 6 μg/kg vs T4 sodium 54 plus T3 sodium 6 μg/kg (9:1), read-out: Tmax
  Tmax: 2 h
Sprague-Dawley, rat, Example 3, T3 sodium 4 μg/kg vs T4 sodium 16 plus T3 sodium 4 μg/kg (4:1), read-out: Tmax
  Tmax: 2.4 h
Sprague-Dawley, rat, Example 5, T3 sodium 15 μg/kg vs T4 sodium 6 plus T3 sodium 15 μg/kg (0.4:1), read-out: Tmax
  Tmax: 4.6 h
